Reference: patent publication US12234232B2, “Aromatic heterocyclic compound with kinase inhibitory activity” (SHANGHAI ENNOVABIO PHARMACEUTICALS CO., LTD., priority 2018, dated 2025)

What was measured:
JAK3 protein = molecular target: T1, JAK3 protein (Homo sapiens, UniProt P52333); assay: In vitro JAK3 kinase activity assay (HTRF kinEASE TK); format: biochemical; details: 0.75 μM ATP, 25 minutes, room temperature; read-out: IC50 JAK3 (enzyme activity assay)
T1 construct: purchased Carna Biosciences
T1 sequence (P52333 1-1124): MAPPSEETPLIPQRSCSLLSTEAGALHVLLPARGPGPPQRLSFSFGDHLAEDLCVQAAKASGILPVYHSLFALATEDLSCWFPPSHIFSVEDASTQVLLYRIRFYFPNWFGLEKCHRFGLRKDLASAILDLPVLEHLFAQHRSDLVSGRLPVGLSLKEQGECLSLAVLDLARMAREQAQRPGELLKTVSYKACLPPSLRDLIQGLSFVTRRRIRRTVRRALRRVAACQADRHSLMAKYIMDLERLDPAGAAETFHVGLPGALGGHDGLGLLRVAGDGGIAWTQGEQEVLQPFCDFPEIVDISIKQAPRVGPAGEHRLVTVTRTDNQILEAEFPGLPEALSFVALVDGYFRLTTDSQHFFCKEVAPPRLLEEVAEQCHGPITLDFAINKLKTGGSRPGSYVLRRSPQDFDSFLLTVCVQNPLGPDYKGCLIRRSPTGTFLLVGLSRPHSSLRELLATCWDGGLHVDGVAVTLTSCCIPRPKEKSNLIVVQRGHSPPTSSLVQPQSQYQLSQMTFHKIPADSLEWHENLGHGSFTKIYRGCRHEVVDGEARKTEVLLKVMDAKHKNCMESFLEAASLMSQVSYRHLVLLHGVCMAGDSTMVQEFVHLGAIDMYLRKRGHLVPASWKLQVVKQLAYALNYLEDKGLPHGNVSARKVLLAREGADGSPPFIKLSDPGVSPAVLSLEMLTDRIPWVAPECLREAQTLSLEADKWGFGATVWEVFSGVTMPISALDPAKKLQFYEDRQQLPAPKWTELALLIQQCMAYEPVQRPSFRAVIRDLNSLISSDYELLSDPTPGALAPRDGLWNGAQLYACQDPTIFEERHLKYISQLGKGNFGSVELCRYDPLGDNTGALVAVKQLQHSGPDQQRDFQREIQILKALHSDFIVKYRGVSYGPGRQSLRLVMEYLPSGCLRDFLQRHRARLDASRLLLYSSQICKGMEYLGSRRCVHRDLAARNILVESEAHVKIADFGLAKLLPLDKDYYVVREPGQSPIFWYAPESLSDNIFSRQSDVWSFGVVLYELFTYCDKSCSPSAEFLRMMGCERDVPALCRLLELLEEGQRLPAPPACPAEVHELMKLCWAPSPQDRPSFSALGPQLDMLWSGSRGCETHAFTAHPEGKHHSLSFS
Protocol: (§1) Recombinant human JAK1 protein was purchased from Thermo Fisher. JAK2 and JAK3 proteins were purchased from Carna Biosciences. HTRF kinEASE TK kit was purchased from Cisbio Bioassays. BioTek microplate reader Synergy Neo 2 was used to read the plate.
(§2) The test compounds were of 4-fold serial dilution, and the final concentration ranged from 10 μM to 0.04 nM in duplicates for each concentration. The concentration of DMSO in the reaction system was 1%.
(§3) The reaction included 0.004 ng/gi JAK 3 protein kinase, 1 μM TK Substrate-biotin peptide substrate, 0.75 μM ATP, 1× enzymatic buffer, 5 mM MgCl2, and 1 mM DTT. The detection plate was White Proxiplate 384-Plus plate (PerkinElmer), and the mixture (10 μl) was reacted at room temperature for 25 minutes.
(§4) Reaction detection: 10 μl of detection reagent was added to the reaction plate containing final concentration of 0.125 μM of SA-XL665 and 5 μl 1×TK-Antibody. The mixture was incubated overnight at room temperature. The plate was read using Synergy Neo 2.
(§5) Data analysis: 665/620 Ratio was converted into inhibition rate (%) through the following formula: inhibition rate (%)=(Ratiomax−Ratiotest)/(Ratiomax−Ratiomin)×100%. Ratiomax is a positive control without detection compound, Ratiomin is a negative control without detection compound and kinase, Ratiotest is the detection value of each concentration of different compounds. 4 parameter curve fitting was performed to measure the IC50 (nM) values. The details are shown in, Table 1.

Mouse pharmacokinetics = format: in vivo; details: CD-1 mice, 5 mg/kg, P.O.
Protocol: Test compound was intravenously (IV) or orally (PO) administrated to CD-1 mice. Blood samples were collected at different time points as indicated below. The concentration of the compounds in the mouse plasma was determined by LC-MS/MS and related parameters were calculated. The details are as follows: the required amount of the test product was taken to prepare a solution of the required concentration for intravenous injection or oral administration. The age of the animals was about 6-8 weeks at the beginning of the dosing experiment. Blood sampling time points are 0.083 h, 0.25 h, 0.5 h, 1 h, 2 h, 4 h, 8 h and 24 h after compound administration. The Phoenix WinNonlin 7.0 software was used to calculate the pharmacokinetic parameters through the blood drug concentration data at different time points.

JAK1 [1] = molecular target: T2, JAK1 (Homo sapiens, UniProt P23458); assay: In vitro JAK1 kinase activity assay (HTRF kinEASE TK); format: biochemical; parameters: purchased Thermo Fisher; details: 1.1 μM ATP, 60 minutes, room temperature; read-out: IC50 JAK1 (enzyme activity assay)
Protocol: as §1, §2
The reaction included 0.5 ng/μl JAK 1 protein kinase, 1 μM TK Substrate-biotin peptide substrate, 1.1 μM ATP, 1× enzymatic buffer, 5 mM MgCl2, 1 mM MnCl2, 1 mM DTT, and 2.5 nM SEB. The detection plate was White Proxiplate 384-Plus plate (PerkinElmer), and the mixture (10 μl) was reacted at room temperature for 60 minutes.
as §4, §5

JAK2 [2] = molecular target: T3, JAK2 (Homo sapiens, UniProt O60674); assay: In vitro JAK2 kinase activity assay (HTRF kinEASE TK); format: biochemical; parameters: purchased Carna Biosciences; details: 2.7 μM ATP, 25 minutes, room temperature; read-out: IC50 JAK2 (enzyme activity assay)
Protocol: as §1, §2
as §3, with “included 0.001 ng/μl” for “included 0.004 ng/gi”, “JAK 2” for “JAK 3”, “substrate, 2.7” for “substrate, 0.75”
as §4, §5

JAK1 [3] = molecular target: T2, JAK1; assay: Cellular JAK1 activity assay: IL-6-stimulated STAT3 phosphorylation in TF-1 cells; format: cell-based; parameters: endogenous in cells; host or cells: TF-1 cells (ATCC); details: IL-6 (30 ng/mL), pSTAT3, read-out: IC50 Cell JAK1
Protocol: (§6) In TF-1 cells, IL-6 stimulation leads to phosphorylation of STAT3 through JAK1, while EPO stimulants phosphorylation of STAT5 via JAK2.
(§7) TF-1 cells were obtained from American Type Culture Collection (ATCC). TF-1 cells were starved overnight (cell density was 100,000 cells/well at plating) in OptiMEM medium without phenol red containing 0.5% fetal bovine serum (FBS), 0.1 mM non-essential amino acids (NEAA), 1 mM sodium pyruvate at 37° C. The compound was serially diluted in DMSO, added to TF-1 cells and incubated at 37° C. for 20 minutes. The final concentration of DMSO was 0.2%. Then, human recombinant cytokine IL-6 (30 ng/mL) or EPO (10 U/mL) was added to the wells containing TF-1 cells. After the cell plate was incubated for 30 minutes, cells were lysed, and the phosphorylation of STAT3 (IL-6) or STAT5 (EPO) in the cell lysate (pSTAT3/total STAT3 Elisa Kit: CST #7300C/CST #7305C; pSTAT5 and total STAT5 Elisa Kit: Abcam #ab205715) was measured. The IC50 value was determined as the concentration of the compound required to inhibit STAT phosphorylation by 50% relative to the measured DMSO control.

JAK2 [4] = molecular target: T3, JAK2; assay: Cellular JAK2 activity assay: EPO-stimulated STAT5 phosphorylation in TF-1 cells; format: cell-based; parameters: endogenous in cells; host or cells: TF-1 cells (ATCC); details: EPO (10 U/mL), pSTAT5, read-out: IC50 Cell JAK2
Protocol: as §6, §7

T2 sequence (P23458 whole entry): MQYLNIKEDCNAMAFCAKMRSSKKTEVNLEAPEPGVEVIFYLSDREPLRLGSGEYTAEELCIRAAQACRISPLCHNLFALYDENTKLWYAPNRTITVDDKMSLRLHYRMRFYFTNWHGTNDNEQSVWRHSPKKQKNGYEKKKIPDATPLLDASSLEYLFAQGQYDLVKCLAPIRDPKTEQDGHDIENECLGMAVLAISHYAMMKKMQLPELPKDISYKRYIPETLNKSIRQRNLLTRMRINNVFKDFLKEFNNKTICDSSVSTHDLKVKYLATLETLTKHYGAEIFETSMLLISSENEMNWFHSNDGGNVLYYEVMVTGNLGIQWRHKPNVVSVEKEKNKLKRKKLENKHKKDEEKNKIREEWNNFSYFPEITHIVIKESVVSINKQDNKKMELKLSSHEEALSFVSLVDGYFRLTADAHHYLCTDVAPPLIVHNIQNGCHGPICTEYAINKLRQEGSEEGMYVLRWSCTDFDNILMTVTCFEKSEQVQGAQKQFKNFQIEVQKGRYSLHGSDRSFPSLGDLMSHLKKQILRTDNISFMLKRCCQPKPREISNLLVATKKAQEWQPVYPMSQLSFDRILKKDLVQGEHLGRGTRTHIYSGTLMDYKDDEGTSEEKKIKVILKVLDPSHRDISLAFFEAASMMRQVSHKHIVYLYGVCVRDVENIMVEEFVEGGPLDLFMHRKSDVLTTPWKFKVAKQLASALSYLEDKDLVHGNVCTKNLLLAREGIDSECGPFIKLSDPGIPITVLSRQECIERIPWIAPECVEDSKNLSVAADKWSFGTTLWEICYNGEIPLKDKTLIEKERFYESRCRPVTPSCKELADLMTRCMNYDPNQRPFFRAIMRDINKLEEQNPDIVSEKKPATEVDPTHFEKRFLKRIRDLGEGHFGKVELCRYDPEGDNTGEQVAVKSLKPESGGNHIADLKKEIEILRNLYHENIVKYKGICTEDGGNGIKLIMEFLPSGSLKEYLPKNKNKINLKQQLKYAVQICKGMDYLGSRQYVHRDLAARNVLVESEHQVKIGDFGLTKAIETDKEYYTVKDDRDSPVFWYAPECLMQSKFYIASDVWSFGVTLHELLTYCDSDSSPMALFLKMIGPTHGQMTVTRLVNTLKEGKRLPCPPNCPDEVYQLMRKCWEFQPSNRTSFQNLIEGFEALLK
T3 sequence (O60674 whole entry): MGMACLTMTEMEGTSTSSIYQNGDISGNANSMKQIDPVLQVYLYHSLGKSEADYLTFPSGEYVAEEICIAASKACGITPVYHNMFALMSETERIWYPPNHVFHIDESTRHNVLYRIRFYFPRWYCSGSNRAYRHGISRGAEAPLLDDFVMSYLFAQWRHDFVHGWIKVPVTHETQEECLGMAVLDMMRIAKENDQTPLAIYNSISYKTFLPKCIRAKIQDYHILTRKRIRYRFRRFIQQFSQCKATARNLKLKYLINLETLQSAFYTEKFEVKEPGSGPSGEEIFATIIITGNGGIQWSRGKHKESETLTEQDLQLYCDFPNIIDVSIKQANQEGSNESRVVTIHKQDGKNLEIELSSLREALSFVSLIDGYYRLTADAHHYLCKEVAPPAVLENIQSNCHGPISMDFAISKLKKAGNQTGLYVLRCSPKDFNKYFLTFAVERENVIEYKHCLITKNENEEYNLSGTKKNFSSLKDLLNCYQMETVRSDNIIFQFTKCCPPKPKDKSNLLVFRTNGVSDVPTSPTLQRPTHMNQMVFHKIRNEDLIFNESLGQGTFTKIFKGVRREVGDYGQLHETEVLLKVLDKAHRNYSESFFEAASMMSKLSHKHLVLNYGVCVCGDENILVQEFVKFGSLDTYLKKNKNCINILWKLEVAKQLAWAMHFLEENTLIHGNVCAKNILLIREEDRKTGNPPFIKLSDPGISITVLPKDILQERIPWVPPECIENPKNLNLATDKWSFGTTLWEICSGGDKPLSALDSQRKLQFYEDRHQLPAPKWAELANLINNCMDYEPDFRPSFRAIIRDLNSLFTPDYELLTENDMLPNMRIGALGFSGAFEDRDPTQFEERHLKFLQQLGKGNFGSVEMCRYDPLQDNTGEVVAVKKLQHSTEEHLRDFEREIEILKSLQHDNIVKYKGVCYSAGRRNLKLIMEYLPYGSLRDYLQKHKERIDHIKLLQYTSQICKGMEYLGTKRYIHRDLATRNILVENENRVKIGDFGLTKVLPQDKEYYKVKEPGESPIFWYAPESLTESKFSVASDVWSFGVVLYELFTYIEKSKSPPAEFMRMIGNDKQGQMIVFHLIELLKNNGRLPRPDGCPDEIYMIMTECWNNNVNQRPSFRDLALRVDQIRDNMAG

| SMILES | IC50 (JAK3 protein) | F (Mouse pharmacokinetics) | Cmax (Mouse pharmacokinetics; mouse, po, plasma) | half-life (Mouse pharmacokinetics; mouse, po, plasma) | AUC(0-t) (Mouse pharmacokinetics; mouse, po, plasma, read-out: AUC0-24 hr) | IC50 (JAK1 [1]) | IC50 (JAK2 [2]) | IC50 (JAK1 [3]) | IC50 (JAK2 [4]) |
| --- | --- | --- | --- | --- | --- | --- | --- | --- | --- |
| CCC(C(=O)Nc1nccc2c(-c3nc(Nc4cccc(S(C)(=O)=O)c4F)ncc3C)c[nH]c12)N1CCN(C)CC1 (stereo in doubt) [Example 21, (R)—N-(3-(2-((2-Fluoro-3-(methylsulfonyl)phenyl)amino)-5-methylpyrimidin-4-yl)-1H-pyrrolo[2,3-c]pyridin-7-yl)-2-(4-methylpiperazin-1-yl)butanamide] | 0.5 to 10 µM | 97.1% | 264 ng/mL | 2.61 h | 1680 ng·h/mL | < 0.005 µM | 0.1 to 10 µM | < 0.1 µM | > 20 µM |
| CCC(C(=O)Nc1nccc2c(-c3nc(Nc4cccc(S(C)(=O)=O)c4F)ncc3F)c[nH]c12)N1CCN(C)CC1 (stereo not shown) [Example 27, N-(3-(5-Fluoro-2-((2-fluoro-3-(methylsulfonyl)phenyl)amino)pyrimidin-4-yl)-1H-pyrrolo[2,3-c]pyridin-7-yl)-2-(4-methylpiperazin-1-yl) butanamide] | 0.5 to 10 µM |  |  |  |  | < 0.005 µM | 0.1 to 10 µM | 0.1 to 1 µM | > 20 µM |
| CCC(C(=O)Nc1nccc2c(-c3nc(Nc4cccc(S(C)(=O)=O)c4F)ncc3C)c[nH]c12)N1CC2(CCN(C)CC2)C1 (stereo not shown) [Example 24, N-(3-(2-((2-Fluoro-3-(methylsulfonyl)phenyl)amino)-5-methylpyrimidin-4-yl)-1H-pyrrolo[2,3-c]pyridin-7-yl)-2-(7-methyl-2,7-diazaspiro[3.5]nonane-2-yl)butanamide] | 0.5 to 10 µM |  |  |  |  | 0.005 to 0.05 µM | 0.1 to 10 µM | 0.1 to 1 µM | > 20 µM |
| CCC(C(=O)Nc1nccc2c(-c3nc(Nc4cccc(S(=O)(=O)CC)c4F)ncc3C)c[nH]c12)N1CCN(C)CC1 (stereo not shown) [Example 28] | 0.5 to 10 µM |  |  |  |  | < 0.005 µM | < 0.1 µM | 0.1 to 1 µM | 10 to 20 µM |
| COc1nn(C)cc1Nc1ncc(C)c(-c2c[nH]c3c(NC(=O)[C@@H](C)N4CCOCC4)nccc23)n1 [Example 7] | < 0.5 µM |  |  |  |  | 0.005 to 0.05 µM | < 0.1 µM | 0.1 to 1 µM | 10 to 20 µM |
| CCC(C(=O)Nc1nccc2c(-c3nc(Nc4cccc(S(C)(=O)=O)c4F)ncc3C)c[nH]c12)N1CCN(C)CC1 (stereo not shown) [Example 19, N-(3-(2-((2-Fluoro-3-(methylsulfonyl)phenyl)amino)-5-methylpyrimidin-4-yl)-1H-pyrrolo[2,3-c]pyridin-7-yl)-2-(4-methylpiperazin-1-yl)butanamide] | 0.5 to 10 µM |  |  |  |  | < 0.005 µM | 0.1 to 10 µM | 0.1 to 1 µM | > 20 µM |
| CCC(C(=O)Nc1nccc2c(-c3nc(Nc4cccc(S(C)(=O)=O)c4F)ncc3C)c[nH]c12)N1CC2CCC(C1)N2C (stereo not shown) [Example 23, N-(3-(2-((2-Fluoro-3-(methylsulfonyl)phenyl)amino)-5-methylpyrimidin-4-yl)-1H-pyrrolo[2,3-c]pyridin-7-yl)-2-(8-methyl-3,8-diazabicyclo[3.2.1]octane-3-yl)butanamide] | 0.5 to 10 µM |  |  |  |  | 0.005 to 0.05 µM | 0.1 to 10 µM | 0.1 to 1 µM | 10 to 20 µM |

Other lines, results leading:

| IC50 (JAK3 protein) | F (Mouse pharmacokinetics) | Cmax (Mouse pharmacokinetics; mouse, po, plasma) | half-life (Mouse pharmacokinetics; mouse, po, plasma) | AUC(0-t) (Mouse pharmacokinetics; mouse, po, plasma, read-out: AUC0-24 hr) | IC50 (JAK1 [1]) | IC50 (JAK2 [2]) | IC50 (JAK1 [3]) | IC50 (JAK2 [4]) | SMILES |
| --- | --- | --- | --- | --- | --- | --- | --- | --- | --- |
| < 0.5 µM |  |  |  |  | 0.005 to 0.05 µM | < 0.1 µM | < 0.1 µM | < 10 µM | CCC(C(=O)Nc1nccc2c(-c3nc(Nc4cn(C)nc4OC)ncc3C)c[nH]c12)N1CCN(C)CC1 (stereo not shown) [Example 2, N-(3-(2-((3-Methoxy-1-methyl-1H-pyrazol-4-yl)amino)-5-methylpyrimidin-4-yl)-1H-pyrrolo[2,3-c]pyridin-7-yl)-2-(4-methylpiperazin-1-yl)butanamide] |
| < 0.5 µM |  |  |  |  | 0.005 to 0.05 µM | < 0.1 µM | < 0.1 µM | < 10 µM | CC[C@@H](C(=O)Nc1nccc2c(-c3nc(Nc4cn(C)nc4OC)ncc3C)c[nH]c12)N1CCN(C)CC1 [Example 3, (S)—N-(3-(2-((3-Methoxy-1-methyl-1H-pyrazol-4-yl)amino)-5-methylpyrimidin-4-yl)-1H-pyrrolo[2,3-c]pyridin-7-yl)-2-(4-methylpiperazin-1-yl)butanamide] |
| < 0.5 µM |  |  |  |  | < 0.005 µM | < 0.1 µM | < 0.1 µM | < 10 µM | COc1nn(C)cc1Nc1ncc(C)c(-c2c[nH]c3c(NC(N)=O)nccc23)n1 [Example 12] |
| < 0.5 µM |  |  |  |  | 0.005 to 0.05 µM | 0.1 to 10 µM | > 1 µM | > 20 µM | Cc1cnc(Nc2cccc(S(C)(=O)=O)c2F)nc1-c1c[nH]c2c(NC(=O)NC(C)C)ncnc12 [Example 33] |
| < 0.5 µM |  |  |  |  | < 0.005 µM | < 0.1 µM | > 1 µM | > 20 µM | COCCNC(=O)Nc1nccc2c(-c3nc(Nc4cccc(S(C)(=O)=O)c4F)ncc3C)c[nH]c12 [Example 32] |
